Experimental data: US20120270929A1, “MODULATION OF TTC39 EXPRESSION TO INCREASE HDL” (ISIS Pharmaceuticals, Inc., priority 2009, published 2012)
Oligonucleotides are written 5' to 3', each unit as a sugar letter and its base; * is a phosphorothioate linkage, no mark a phosphodiester; rarer units and linkages stand in square brackets, end groups in braces. Plain capitals give the bases only. e = 2'-O-(2-methoxyethyl) (MOE); [5mC] = 5-methylcytosine; d = 2'-deoxy (DNA)

What was measured:
[1] = tested on: murine TTC39A mRNA; assay: Dose-dependent antisense inhibition of murine TTC39A in b.END cells; assay type: cell-based, mouse; settings: ~16 h; for IC50: cytofectin
Procedure: Cells were plated at a density of 3,500 cells per well and transfected using cytofectin reagent with 4.375 nM, 8.75 nM, 17.5 nM, 35 nM, 70 nM, and 140 nM concentrations of antisense oligonucleotide, as specified in Table 28. After a treatment period of approximately 16 hours, RNA was isolated from the cells and TTC39A mRNA levels were measured by quantitative real-time PCR. Murine primer probe set RTS3262 was used to measure mRNA levels. TTC39A mRNA levels were adjusted according to total RNA content, as measured by RIBOGREEN®. Results are presented as percent inhibition of TTC39A, relative to untreated control cells.

[2] = tested on: murine TTC39A mRNA; assay: Antisense inhibition of mouse TTC39A in b.END cells, single dose; assay type: cell-based; settings: 70 nM, cytofectin, ~24 h, vs untreated control
Procedure: Antisense oligonucleotides were designed targeting a TTC39A nucleic acid and were tested for their effects on TTC39A mRNA in vitro. Cultured b.END cells at a density of 4,000 cells per well were transfected using cytofectin reagent with 70 nM antisense oligonucleotide. After a treatment period of approximately 24 hours, RNA was isolated from the cells and TTC39A mRNA levels were measured by quantitative real-time PCR. Mouse primer probe set RTS3262 (forward sequence TGTGCGTCATGCTGTTGCT, designated herein as SEQ ID NO: 113; reverse sequence […], designated herein as SEQ ID NO: 114; probe sequence […], designated herein as SEQ ID NO: 115). TTC39A mRNA levels were adjusted according to total RNA content, as measured by RIBOGREEN®. Results are presented as percent inhibition of TTC39A, relative to untreated control cells.
The chimeric antisense oligonucleotides targeting TTC39A were designed as 5-10-5 MOE gapmers. The gapmers are 20 nucleotides in length, wherein the central gap segment is comprised of ten 2′-deoxynucleotides and is flanked on both sides (in the 5′ and 3′ directions) by wings comprising five nucleotides each. Each nucleotide in the 5′ wing segment and each nucleotide in the 3′ wing segment has a 2′-MOE modification. The internucleoside linkages throughout each gapmer are phosphorothioate (P═S) linkages. All cytosine residues throughout each gapmer are 5-methylcytosines. “Mouse Target start site” indicates the 5′-most nucleotide to which the gapmer is targeted in a mouse nucleic acid sequence.

| Sequence | percent inhibition of TTC39A mRNA ([1]; 4.375 nM) [%] | percent inhibition of TTC39A mRNA ([1]; 8.75 nM) [%] | percent inhibition of TTC39A mRNA ([1]; 17.5 nM) [%] | percent inhibition of TTC39A mRNA ([1]; 35.0 nM) [%] | percent inhibition of TTC39A mRNA ([1]; 70.0 nM) [%] | percent inhibition of TTC39A mRNA ([1]; 140.0 nM) [%] | IC50 [1] [µM] | % inhibition of murine TTC39A mRNA [2] [%] |
| --- | --- | --- | --- | --- | --- | --- | --- | --- |
| AGTTGGGACCCAGAAGGCCT (eA*eG*eT*eT*eG*dG*dG*dA*d[5mC]*d[5mC]*d[5mC]*dA*dG*dA*dA*eG*eG*e[5mC]*e[5mC]*eT; antisense) [ISIS 474497] | 8 | 5 | 21 | 29 | 53 | 77 | 0.072 | 94 |
| CACCTGGGTTTGAGGTAGCT (e[5mC]*eA*e[5mC]*e[5mC]*eT*dG*dG*dG*dT*dT*dT*dG*dA*dG*dG*eT*eA*eG*e[5mC]*eT; antisense) [ISIS 474498] | 0 | 6 | 33 | 55 | 64 | 80 | 0.035 | 95 |
| CCGCACTTTGATGCCGCCCT (e[5mC]*e[5mC]*eG*e[5mC]*eA*d[5mC]*dT*dT*dT*dG*dA*dT*dG*d[5mC]*d[5mC]*eG*e[5mC]*e[5mC]*e[5mC]*eT; antisense) [ISIS 474435] | 0 | 2 | 11 | 8 | 52 | 76 | 0.067 | 94 |
| CGCCTGGACTTCCGGATAGC (e[5mC]*eG*e[5mC]*e[5mC]*eT*dG*dG*dA*d[5mC]*dT*dT*d[5mC]*d[5mC]*dG*dG*eA*eT*eA*eG*e[5mC]; antisense) [ISIS 474369] | 0 | 14 | 22 | 48 | 62 | 82 | 0.044 | 96 |
| GCATGTAGAGAACTTCCAGG (eG*e[5mC]*eA*eT*eG*dT*dA*dG*dA*dG*dA*dA*d[5mC]*dT*dT*e[5mC]*e[5mC]*eA*eG*eG; antisense) [ISIS 474382] | 0 | 10 | 24 | 41 | 68 | 80 | 0.042 | 95 |
